Measurements as given in patent US10821115B2, “Compounds that inhibit Mcl-1 protein” (priority 2017, dated 2020).
pIC50: −log10 of the molar value. Like-named read-outs stand apart in the source and are kept apart here.

What was measured:
[1] = molecular target: recombinant human Mcl-1 (residues 171-327) / Bim interaction (Homo sapiens (Human), UniProt Q07820); test: biochemical; type: binding
[2] = test system: human multiple myeloma cell line, OPM-2; test: Cell viability assay (OPM-2 10 FBS), CellTiter-Glo; type: cell-based
Procedure, shortened: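 Steps: plate cells at 3000/well in 10% FBS growth medium, add serially diluted compound, incubate 16 h at 37 °C with 5% CO2, add detection reagent and read luminescence after 25 min. A 4-parameter logistic model gives IC50.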

[3] = Homo sapiens, OPM-2, 16 h, read-out: OPM-2 10% FBS IC50 IP, OPM-2 cells, 10% FBS, 16 h, CellTiter-Glo
[4] = TR-FRET, Mcl-1(171-327) / biotin-Bim (51-76), read-out: Mcl-1 HTRF IC50
[5] = read-out: OPM-2 10% FBS IC50 IP, OPM-2 cells, 10% FBS, 16 h, CellTiter-Glo
[6] = 0.1 nM Mcl-1(171-327), 0.05 nM biotin-Bim (51-76), read-out: Mcl-1 HTRF IC50
[7] = Homo sapiens, OPM-2, 16 h, read-out: OPM-2 10% FBS IC50 IP, OPM-2 cells, 10% FBS, 16 h incubation

recombinant human Mcl-1 (residues 171-327) / Bim interaction, sequence (Q07820 171-327): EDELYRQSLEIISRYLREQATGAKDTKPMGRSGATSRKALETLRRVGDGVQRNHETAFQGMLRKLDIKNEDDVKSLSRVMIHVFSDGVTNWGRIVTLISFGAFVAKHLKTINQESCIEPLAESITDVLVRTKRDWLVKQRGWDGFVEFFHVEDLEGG

**Q.** Which results are given for `CCC[C@@]1(O)/C=C/C[C@H](C)[C@@H](C)S(=O)(=O)NC(=O)c2ccc3c(c2)N(C[C@@H]2CC[C@H]21)C[C@@]1(CCCc2cc(Cl)ccc21)CO3` [Example 100209, (1S,3′R,6′R,7′R,8′E,11′S,12′R)-6-chloro-7′-hydroxy-11′,12′-dimethyl-7′-propyl-3,4-dihydro-2H,15′H-spiro[naphthalene-1,22′-[20]oxa[13]thia[1,14]diazatetracyclo [14.7.2.0~3,6~.0~19,24~]pentacosa[8,16,18,24]tetraen]-15′-one 13′,13′-dioxide]?
**A.** pIC50 ([1]; read-out: Mcl-1 HTRF IC50): 8.57; pIC50 [2, 3]: 5.47

**Q.** Which results are given for `C=CC[C@@]1(O)/C=C/C[C@H](C)[C@@H](C)S(=O)(=O)NC(=O)c2ccc3c(c2)N(C[C@@H]2CC[C@H]21)C[C@@]1(CCCc2cc(Cl)ccc21)CO3` (stereo in doubt) [Example 100127]?
**A.** pIC50 [1, 4]: 9.76; pIC50 [2, 5]: 6.97

**Q.** How did the pIC50 [1, 4] turn out when `C[C@@H]1[C@@H](C)CCC[C@](C)(O)[C@@H]2CC[C@H]2CN2C[C@@]3(CCCc4cc(Cl)ccc43)COc3ccc(cc32)C(=O)NS1(=O)=O` [Example 100049, (1S,3′R,6′R,7′S,11′S,12′R)-6-chloro-7′-hydroxy-7′,11′,12′-trimethyl-3,4-dihydro-2H,15′H-spiro[naphthalene-1,22′-[20]oxa[13]thia[1,14]diazatetracyclo [14.7.2.0~3,6~.0~19,24~]pentacosa[16,18,24]trien]-15′-one 13′,13′-dioxide] was run?
**A.** 8.90

**Q.** And the pIC50 [2, 3]?
**A.** 5.67

**Q.** Which results are given for `CO[C@@]1(CN2CCN3CCC(F)(F)C[C@H]3C2)/C=C/C[C@H](C)[C@@H](C)S(=O)(=O)NC(=O)c2ccc3c(c2)N(C[C@@H]2CC[C@H]21)C[C@@]1(CCCc2cc(Cl)ccc21)CO3` (single isomer, unassigned) [Example 289]?
**A.** pIC50 [1, 6]: 9.67; pIC50 ([2]; read-out: OPM-2 10% FBS IC50 IP, OPM-2 cells, 10% FBS, 16 h incubation): 6.88

**Q.** How did the pIC50 [1, 4] turn out when `C[C@@H]1[C@@H](C)CCC[C@](O)(CC(=O)N(C)C(C)(C)C)[C@@H]2CC[C@H]2CN2C[C@@]3(CCCc4cc(Cl)ccc43)COc3ccc(cc32)C(=O)NS1(=O)=O` (single isomer, unassigned) [Example 100142] was run?
**A.** 9.14

**Q.** And the pIC50 [2, 5]?
**A.** 6.18

**Q.** With `CO[C@@]1(CN2CCN(c3cccnc3)CC2)/C=C/C[C@H](C)[C@@H](C)S(=O)(=O)NC(=O)c2ccc3c(c2)N(C[C@@H]2CC[C@H]21)C[C@@]1(CCCc2cc(Cl)ccc21)CO3` [Example 253, (1S,3′R,6′R,7′S,8′E,11′S,12′R)-6-chloro-7′-methoxy-11′,12′-dimethyl-7′-((4-(3-pyridinyl)-1-piperazinyl)methyl)-3,4-dihydro-2H,15′H-spiro[naphthalene-1,22′-[20]oxa[13]thia[1,14]diazatetracyclo [14.7.2.0~3,6~.0~19,24~]pentacosa[8,16,18,24]tetraen]-15′-one 13′,13′-dioxide] as the compound, how does the pIC50 [1, 6] read?
**A.** 9.09

**Q.** And the pIC50 [2, 7]?
**A.** 6.05

**Q.** How did the pIC50 [1, 4] turn out when `CO[C@]1(CCN2CCCCC2)/C=C/C[C@H](C)[C@@H](C)S(=O)(=O)NC(=O)c2ccc3c(c2)N(C[C@@H]2CC[C@H]21)C[C@@]1(CCCc2cc(Cl)ccc21)CO3` [Example 100449, (1S,3′R,6′R,7′R,8′E,11′S,12′R)-6-chloro-7′-methoxy-11′,12′-dimethyl-7′-(2-(1-piperidinyl)ethyl)-3,4-dihydro-2H,15′H-spiro[naphthalene-1,22′-[20]oxa[13]thia[1,14]diazatetracyclo [14.7.2.0~3,6~.0~19,24~]pentacosa[8,16,18,24]tetraen]-15′-one 13′,13′-dioxide] was run?
**A.** 10.15

**Q.** What about the pIC50 [2, 3] of the same compound?
**A.** 6.77

**Q.** How did the pIC50 [1, 4] turn out when `C[C@@H]1[C@@H](C)C/C=C/[C@@](O)(CC(=O)N2CCN3CCOC[C@H]3C2)[C@@H]2CC[C@H]2CN2C[C@@]3(CCCc4cc(Cl)ccc43)COc3ccc(cc32)C(=O)NS1(=O)=O` [Example 100311, (1S,3′R,6′R,7′S,8′E,11′S,12′R)-6-chloro-7′-(2-((9aR)-hexahydropyrazino[2,1-c][1,4]oxazin-8(1H)-yl)-2-oxoethyl)-7′-hydroxy-11′,12′-dimethyl-3,4-dihydro-2H,15′H-spiro[naphthalene-1,22′-[20]oxa[13]thia[1,14]diazatetracyclo [14.7.2.0~3,6~.0~19,24~]pentacosa[8,16,18,24]tetraen]-15′-one 13′,13′-dioxide] was run?
**A.** 8.99

**Q.** What about the pIC50 [2, 3] of the same compound?
**A.** 5.92

**Q.** `C[C@@H]1[C@@H](C)CCC[C@@](O)(Cc2ccccn2)[C@@H]2CC[C@H]2CN2C[C@@]3(CCCc4cc(Cl)ccc43)COc3ccc(cc32)C(=O)NS1(=O)=O` [Example 100104, (1S,3′R,6′R,7′R,11′S,12′R)-6-chloro-7′-hydroxy-11′,12′-dimethyl-7′-(2-pyridinylmethyl)-3,4-dihydro-2H,15′H-spiro[naphthalene-1,22′-[20]oxa[13]thia[1,14]diazatetracyclo [14.7.2.0~3,6~.0~19,24~]pentacosa[16,18,24]trien]-15′-one 13′,13′-dioxide] was tested. Which pIC50 [1, 4] did it give?
**A.** 9.22

**Q.** And the pIC50 [2, 5]?
**A.** 6.60

**Q.** What does the source list for `COc1ncccc1[C@@]1(O)/C=C/C[C@H](C)[C@@H](C)S(=O)(=O)NC(=O)c2ccc3c(c2)N(C[C@@H]2CC[C@H]21)C[C@@]1(CCCc2cc(Cl)ccc21)CO3` (single isomer, unassigned) [Example 100333]?
**A.** pIC50 [1, 4]: 8.68; pIC50 [2, 3]: 5.66

**Q.** What does the source list for `CO[C@@]1(CN2CCc3nocc3C2)/C=C/C[C@H](C)[C@@H](C)S(=O)(=O)NC(=O)c2ccc3c(c2)N(C[C@@H]2CC[C@H]21)C[C@@]1(CCCc2cc(Cl)ccc21)CO3` [Example 200]?
**A.** pIC50 [1, 6]: 9.50; pIC50 [2, 7]: 6.23

**Q.** What does the source list for `CO[C@]1(CN2C[C@@H]3C[C@H]2CN3C(C)C)/C=C/C[C@H](C)[C@@H](C)S(=O)(=O)NC(=O)c2ccc3c(c2)N(C[C@@H]2CC[C@H]21)C[C@@]1(CCCc2cc(Cl)ccc21)CO3` [Example 315, (1S,3′R,6′R,7′R,8′E,11′S,12′R)-6-chloro-7′-methoxy-11′,12′-dimethyl-7′-(((1S,4S)-5-(1-methylethyl)-2,5-diazabicyclo[2.2.1]hept-2-yl)methyl)-3,4-dihydro-2H,15′H-spiro[naphthalene-1,22′-[20]oxa[13]thia[1,14]diazatetracyclo [14.7.2.0~3,6~.0~19,24~]pentacosa[8,16,18,24]tetraen]-15′-one 13′,13′-dioxide]?
**A.** pIC50 [1, 6]: 9.91; pIC50 [2, 7]: 6.91

**Q.** What does the source list for `CO[C@]1(CN2CCN(CCF)CC2)/C=C/C[C@H](C)[C@@H](C)S(=O)(=O)NC(=O)c2ccc3c(c2)N(C[C@@H]2CC[C@H]21)C[C@@]1(CCCc2cc(Cl)ccc21)CO3` [Example 96, (1S,3′R,6′R,7′R,8′E,11′S,12′R)-6-chloro-7′-((4-(2-fluoroethyl)-1-piperazinyl)methyl)-7′-methoxy-11′,12′-dimethyl-3,4-dihydro-2H,15′H-spiro[naphthalene-1,22′-[20]oxa[13]thia[1,14]diazatetracyclo [14.7.2.0~3,6~.0~19,24~]pentacosa[8,16,18,24]tetraen]-15′-one 13′,13′-dioxide]?
**A.** pIC50 [1, 6]: 9.94; pIC50 [2, 7]: 6.95

**Q.** How did the pIC50 ([1]; Mcl-1 HTRF IC50) turn out when `C[C@@H]1[C@@H](C)C/C=C/[C@](C)(O)[C@@H]2CC[C@H]2CN2C[C@@]3(CCCc4cc(Cl)ccc43)COc3ccc(cc32)C(=O)NS1(=O)=O` [Example 100016, (1S,3′R,6′R,7′S,8′E,11′S, 12′R)-6-chloro-7′-hydroxy-7′,11′,12′-trimethyl-3,4-dihydro-2H,15′H-spiro[naphthalene-1,22′-[20]oxa[13]thia[1,14]diazatetracyclo[14.7.2.0-3,6˜.0˜19,24˜]pentacosa[8,16,18,24]tetraen]-15′-one 13′,13′-dioxide] was run?
**A.** 9.74

**Q.** What about the pIC50 [2, 3] of the same compound?
**A.** 6.88

**Q.** What does the source list for `C[C@@H]1[C@@H](C)C/C=C/[C@@](O)(C=O)[C@@H]2CC[C@H]2CN2C[C@@]3(CCCc4cc(Cl)ccc43)COc3ccc(cc32)C(=O)NS1(=O)=O` [Example 100291, (1S,3′R,6′R,7′S,8′E,11′S,12′R)-6-chloro-7′-hydroxy-11′,12′-dimethyl-15′-oxo-3,4-dihydro-2H-spiro[naphthalene-1,22′-[20]oxa[13]thia[1,14]diazatetracyclo [14.7.2.0~3,6~.0~19,24~]pentacosa[8,16,18,24]tetraene]-7′-carbaldehyde 13′,13′-dioxide]?
**A.** pIC50 [1, 4]: 9.86; pIC50 [2, 3]: 6.55

**Q.** `CO[C@]1(CN2CCN(C(C)(C)C)CC2)/C=C/C[C@H](C)[C@@H](C)S(=O)(=O)NC(=O)c2ccc3c(c2)N(C[C@@H]2CC[C@H]21)C[C@@]1(CCCc2cc(Cl)ccc21)CO3` [Example 307, (1S,3′R,6′R,7′R,8′E,11′S,12′R)-7′-((4-tert-butyl-1-piperazinyl)methyl)-6-chloro-7′-methoxy-11′,12′-dimethyl-3,4-dihydro-2H,15′H-spiro[naphthalene-1,22′-[20]oxa[13]thia[1,14]diazatetracyclo [14.7.2.0~3,6~.0~19,24~]pentacosa[8,16,18,24]tetraen]-15′-one 13′,13′-dioxide] was tested. Which pIC50 [1, 6] did it give?
**A.** 10.06

**Q.** And the pIC50 [2, 7]?
**A.** 7.39

**Q.** Which results are given for `C[C@@H]1[C@@H](C)CCC[C@]2(CC(N(C)C)=NO2)[C@@H]2CC[C@H]2CN2C[C@@]3(CCCc4cc(Cl)ccc43)COc3ccc(cc32)C(=O)NS1(=O)=O` [Example 100136, (1S,3′R,6′R,7′S,11′S,12′R)-6-chloro-3″- (dimethylamino)-11′,12′-dimethyl-3,4-dihydro-2H,4″H,15′H-dispiro[naphthalene-1,22′-[20]oxa[13]thia[1,14]diazatetracyclo [14.7.2.0~3,6~.0~19,24~]pentacosa[16,18,24]triene-7′,5″-[1,2]oxazol]-15′-one 13′,13′-dioxide]?
**A.** pIC50 [1, 4]: 9.43; pIC50 [2, 3]: 6.25
